According to patent publication US20030158529A1 (priority 2001, published 2003):
Read-outs that look alike come from different tables or passages of the source.

Assays:
Format in all cases: cell-based, Staphylococcus aureus
S. aureus (MN8) = system: S. aureus (MN8)
S. aureus FRI-1187 = system: S. aureus FRI-1187
S. aureus FRI-1169 = system: S. aureus FRI-1169

| SMILES | CFU/mL (S. aureus (MN8)) [CFU/mL] | Reduction of Toxin (%) (S. aureus (MN8)) | ELISA: TSST-1 ng/OD unit (S. aureus (MN8); S. aureus MN8, 2 μg/mL test compound, 24 hours) [ng/OD unit] | Optical Density 600 nm (S. aureus (MN8); S. aureus MN8, 2 μg/mL test compound, 24 hours, 35° C.) | CFU/mL (S. aureus FRI-1187) [CFU/mL] | Optical Density 600 nm (S. aureus FRI-1187) | ELISA: TSST-1 ng/OD unit (S. aureus FRI-1187; S. aureus FRI-1187, 0.5 ug/mL) [ng/OD unit] | CFU/mL (S. aureus FRI-1169) [CFU/mL] | Optical Density 600 nm (S. aureus FRI-1169) | ELISA: TSST-1 ng/OD unit (S. aureus FRI-1169; S. aureus FRI-1169, 0.5 μg/mL) [ng/OD unit] | ELISA: TSST-1 ng/OD unit (S. aureus (MN8); S. aureus MN8, 0.01 μg/mL test compound, 24 hours) [ng/OD unit] | Optical Density 600 nm (S. aureus (MN8); S. aureus MN8, 0.01 μg/mL test compound, 24 hours, 35° C.) | ELISA: TSST-1 ng/OD unit (S. aureus (MN8)) [ng/OD unit] | Optical Density 600 nm (S. aureus (MN8)) |
| --- | --- | --- | --- | --- | --- | --- | --- | --- | --- | --- | --- | --- | --- | --- |
| Oc1c(Cl)cc(Cl)c(Cl)c1Cc1c(O)c(Cl)cc(Cl)c1Cl [Hexachlorophene, hexachlorophene] | 3.7E+08 | 68 | 330 | 0.350 |  |  |  |  |  |  |  |  |  |  |
| Oc1cc(Cl)ccc1Oc1ccc(Cl)cc1Cl [Triclosan, triclosan] | 1.0E+08 | 88 |  |  | 1.56E+09 | 0.156 | 95 | 1.50E+09 | 0.625 | 40 | 129 | 0.271 |  |  |
| Oc1ccc(Cc2ccccc2)cc1 [4-Hydroxydiphenylmethane, 4-hydroxydiphenyl methane] | 1.1E+08 |  |  |  |  |  |  |  |  |  |  |  | 785 | 0.581 |
